The values that follow are results of earlier work, collected in US20250009687A1, “COMPOSITIONS AND METHODS USING A COMBINATION OF NUTRIENTS TO SUPPORT COGNITION AND EMOTIONAL HEALTH IN A MAMMAL” (SOCIETE DES PRODUITS NESTLE S.A., priority 2021, published 2025).

The structures appear in SMILES notation.

The data set deals with TFEB. The conditions noted are these: Fu X. et al., Experimental Neurology 2021.

On to `C[C@@H]1O[C@@H](O[C@H]2[C@H](O[C@H]3C[C@]4(C)[C@H](C[C@@H](O)[C@@H]5[C@@H]([C@]6(C)CC[C@H](C(C)(C)O)O6)CC[C@]54C)[C@@]4(C)CC[C@H](O)C(C)(C)[C@H]34)O[C@H](CO)[C@@H](O)[C@@H]2O)[C@H](O)[C@H](O)[C@H]1O` [PF11], for which the neuroprotection entry is “neuroprotective”. Moreover, the “Lamp1 and Ctsd mRNA” value (acting through TFEB) was “increase”.
